We go through 1 compound from patent US9908896B2, “P38 and JNK MAPK inhibitors for the treatment and prophylaxis of degenerative diseases of the nervous system” (ALLINKY BIOPHARMA, priority 2014, dated 2018).

Data set [1] is described as follows: Single dose i.p. and i.v. blood brain barrier permeability study, plasma and brain concentration (LC-MS/MS). Format: in vivo, male Sprague Dawley rat. As to conditions: for concentration at 2 h: male, Sprague Dawley, 10 mg/kg. As for the experimental part: The objective of these tests was to determine the plasma and brain concentration of the compound 1 in male Sprague Dawley rat after single intraperioneal (i.p.) and intravenous (i.v.) administration.
The compound 1 was administered intravenously (i.v.) through tail vein and intraperitoneally (i.p.) in abdominal cavity. After dosing of each animal, the time was documented.
Formulation vehicle: 20 Vol.-% Cremophore, 10 Vol.-% ethanol, 70 Vol.-% normal saline
Bioanalysis was performed using fit-for-purpose LC-MS/MS method for the quantification of test compounds in plasma samples and brain homogenate. The method was validated for calibration curve consisted of nine non-zero calibration standards along with a double blank and zero standard samples. Study samples were analysed along with two sets of quality control samples (6 QC samples; low, medium and high QC sample).
Sample Process: Blood samples were placed on ice prior to centrifugation and centrifuged within 15 min at 5000 rpm for 10 min at 4° C.
Immediately after blood withdrawal, in situ brain perfusion was performed using chilled saline. The chest of the rat was exposed, the abdominal aorta was clamped and both jugular veins were cut. Intra-cardial perfusion was performed through an insertion in the left ventricle. Perfusion of each rat was followed by exanguination for brain collection. The skin over the cranium was incised and deflected. The head was flexed and a cut was made through the muscles and the spinal cord at the junction of the foreman magnum and atlas vertebra. A circumferential incision was carefully made in the cranium using a bone cutter. The roof of the cranium was lifted off to expose the meninges and brain. The meninges were removed carefully. Then holding the head with the nose pointing upward, the anterior part of the brain was lifted to separate the brain. Separated brain was immediately weighed and frozen at −80±10° C. until homogenization.
Brain samples were thawed on ice. An appropriate volume of ice cold homogenizing media (Normal Saline) was added. Brain samples were homogenized on ice with the Polytron® homogenizer and volume was adjusted with homogenizing media to achieve 1 g of brain per 5 ml of homogenate. After homogenization, the brain homogenate were immediately frozen at −80° C. until analysis.

Data set [2] relates to TNF-α secretion by a human monocytic cell line, THP-1. In words: Inhibition of TNF-α secretion by LPS-stimulated THP-1 cells (ELISA). In kind it is cell-based. As to conditions: LPS-stimulated THP-1, TNF-α. As for the experimental part:
Thp1-Inhibition of TNF-α Secretion by a Human Monocytic Cell Line, THP-1
THP-1 cells, growing in log phase, were collected by centrifugation and resuspended in RPMI 1640 (Sigma Aldrich), to a final cell concentration of 2×10^6 cells/ml. Cells were plated into 24-well plates (BD Biosciences). Dilutions of compounds in dimethyl sulfoxide (DMSO) were added to the culture to a final concentration M. The final DMSO concentration was 0.5%. The cells […] suspensions were preincubated with compounds for 1 h at 37° C. in a 5% CO2 humidified atmosphere before the addition of LPS (Sigma Aldrich, L2654) to a g/ml. After that, cells were incubated for 3 h followed final concentration of […] by centrifugation to pellet cells. Cell supernatants were stored at 4° C. until human analysis for TNF-α content. TNF-α levels were determined by ELISA (TNF Biotrak, GE Healthcare) following the manufacturer's directions. The percentage inhibition was calculated for each compound concentration tested, and the IC50 was calculated for each compound.
In general terms: ELISA stands for enzyme-linked immunosorbent assay.

The target of data set [3] is T1, recombinant activated p38alpha (Homo sapiens, UniProt Q16539).
T1 construct: purchased ProQinase
In words: in vitro kinase assay p38 (ADP-Glo). In kind it is biochemical. The note with it: 100 μM ATP. As for the experimental part:
(§1) Purified recombinant activated p38alpha (10 nM)(ProQinase) was preincubated 10 minutes at 30° C. with the compound of interest at concentrations between 1 and 100 μM in duplicate in a final volume of 30 μl of kinase buffer (Hepes 60 mM pH 7.5, MgCl2 3 mM, MnCl2 3 mM, sodium orthovanadate 3 μM, DTT 1.2 mM). After preincubation, peptide substrate (SignalChem #P03-58) and ATP were added to a final concentration of 10 μM and 100 μM respectively, and then incubated 40 minutes at 30° C. for the kinase reaction. Phosphorylation was analysed with ADP-Glo™ (Promega #V9101) and emitted luminescence was measured with BMG Fluostar microplate reader.

The subject of data set [4] is recombinant activated JNK. In words: in vitro kinase assay JNK (ADP-Glo). Format: biochemical. The note with it: 100 μM ATP. As for the experimental part: as §1, with “JNK” for “p38alpha”, “nM) (ProQinase)” for “nM)(ProQinase)”, “analyzed” for “analysed”
(In general: ADP-Glo first removes unused ATP, then detects ADP through luciferase.)

Data set [5] concerns Aβ25-35-induced Aβ1-42 accumulation in the rat hippocampus. In words: Aβ1-42 content in hippocampus by ELISA after i.c.v. Aβ25-35 injection. Format: in vivo, male Sprague Dawley rats. The note with it: 10 mg/kg i.v. once a day; after Aβ25-35 injection; vs Sc.Aβ/Veh group. As for the experimental part: The compound efficacy was evaluated 7 days after the peptide administration, on: • the attenuation of the Aβ25-35-induced learning deficits (recognition long-term memory: novel object recognition); • the attenuation of the Aβ25-35-induced Aβ^1-42 accumulation in the rat hippocampus.
One administration procedure was examined: the compound 1 (10 mg/kg) administered intraveinously (i.v.) once a day during 9 days.
On day 10, all animals were sacrificed, the frontal cortex and hippocampi dissected out. One hippocampus was used for the ELISA analyses of Aβ1-42 content.
Samples were prepared from one hippocampus tissues of each rat per group and homogenized in an extraction buffer specific to the commercial ELISA assay kits.
After thawing, the hippocampus were homogenized in 50 mM Tris-150 mM NaCl buffer, pH 7.5, and sonicated for 20 s. After centrifugation (16,100 g for 15 min, 4° C.), supernatants were used for Aβ1-42 ELISA assay according to the manufacturer instructions. Absorbance was read at 450 nm and sample concentration was calculated using the standard curve. Results will be expressed in pg of Aβ1-42 per mg of tissue. […]
All values were expressed as mean±S.E.M. Statistical analyses were performed on the different conditions using one-way ANOVA (F value), followed by the Dunnett's post-hoc multiple comparison test. p<0.05 was considered as statistically significant.

Values joined by “and” are separate entries in the source; they are usually repeats but may differ in a detail not shown here. Identical values can stand only once. Like-named read-outs stand apart in the source and are kept apart here.

T1 sequence (Q16539 whole entry): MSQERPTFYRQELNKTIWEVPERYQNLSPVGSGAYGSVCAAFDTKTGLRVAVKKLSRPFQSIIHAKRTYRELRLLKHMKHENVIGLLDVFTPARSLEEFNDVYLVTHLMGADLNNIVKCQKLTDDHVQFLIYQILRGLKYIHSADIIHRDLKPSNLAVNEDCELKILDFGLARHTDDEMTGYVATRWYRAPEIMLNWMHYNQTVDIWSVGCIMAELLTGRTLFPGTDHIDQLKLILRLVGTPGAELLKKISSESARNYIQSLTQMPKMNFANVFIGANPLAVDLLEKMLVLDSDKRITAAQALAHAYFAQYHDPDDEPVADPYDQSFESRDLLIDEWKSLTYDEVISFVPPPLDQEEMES

As usually defined, the inhibition is how much of the control response was suppressed. For the compound `CCCOc1ccc(Nc2nc3nonc3nc2N2CCC(Oc3ccc(Cl)cc3)CC2)cc1` [Comp 1], the “Concentration in rat brain homogenate i.p. at 2 h, individual rats” value in data set [1] (10 mg/kg i.p., rats R1, R2, R3) is 31.30 ng/g and 44.55 ng/g. The “Concentration in rat plasma i.p. at 2 h, individual rats” value in data set [1] (10 mg/kg i.p., rats R1, R2, R3) is 63.64 ng/mL and 87.75 ng/mL. The “Concentration in rat brain homogenate i.v. at 2 h, individual rats” value in data set [1] (10 mg/kg i.v., rats R1, R2, R3) was 394.80 ng/g and 439.45 ng/g. In addition, the “Concentration in rat plasma i.v. at 2 h, individual rats” value in data set [1] (10 mg/kg i.v., rats R1, R2, R3) is 293.38 ng/mL and 156.26 ng/mL. Further, the concentration at 2 h turned out to be 41.6 ng/g in data set [1] (rat, brain homogenate, intraperitoneal, 10 mg/kg i.p., mean of 3 rats, read-out: Concentration in rat brain homogenate i.p. at 2 h, Mean); 49.1 ng/g in data set [1] (rat, brain homogenate, intraperitoneal, 10 mg/kg i.p., rats R1, R2, R3, read-out: Concentration in rat brain homogenate i.p. at 2 h, individual rats); 386 ng/g in data set [1] (rat, brain homogenate, intravenous, 10 mg/kg i.v., mean of 3 rats, read-out: Concentration in rat brain homogenate i.v. at 2 h, Mean); 323 ng/g in data set [1] (rat, brain homogenate, intravenous, 10 mg/kg i.v., rats R1, R2, R3, read-out: Concentration in rat brain homogenate i.v. at 2 h, individual rats); 91.5 ng/mL in data set [1] (rat, plasma, intraperitoneal, 10 mg/kg i.p., mean of 3 rats, read-out: Concentration in rat plasma i.p. at 2 h, Mean); 123 ng/mL in data set [1] (rat, plasma, intraperitoneal, 10 mg/kg i.p., rats R1, R2, R3, read-out: Concentration in rat plasma i.p. at 2 h, individual rats). The concentration at 2 h in data set [1] (rat, plasma, intravenous, 10 mg/kg i.v., mean of 3 rats, read-out: Concentration in rat plasma i.v. at 2 h, Mean) amounted to 204 ng/mL; in data set [1] (rat, plasma, intravenous, 10 mg/kg i.v., rats R1, R2, R3, read-out: Concentration in rat plasma i.v. at 2 h, individual rats) it was 163 ng/mL. Besides, the “blood-brain permeability (in words)” value in data set [1] (rat, 10 mg/kg i.v. or i.p., 2 h) is given as “excellent blood-brain permeability”. In addition, the inhibition at 1 µM in data set [2] (1 μM compound, read-out: % of inhibition at 1 μM, THP1) is 51%; in data set [3] (1 μM compound), 37%. The inhibition at 10 µM in data set [2] (10 μM compound, read-out: % of inhibition at 10 μM, THP1) came out at 74%; in data set [3] (10 μM compound) it was 99%. Besides, in data set [4] (1 μM compound), the “% of inhibition at 1 μM, JNK” value amounted to 49%. For the same compound, the “% of inhibition at 10 μM, JNK” value in data set [4] (10 μM compound) is on record as 98%. The “Aβ1-42 level in the hippocampus” value in data set [5] was “decreased the Aβ1-42 level increase”.
